Experimental data published in ChEMBL document CHEMBL1201862, “PubChem BioAssay data set” (2004).
The source made the active and inactive calls.

What was measured:
[1] = molecular target: Cytochrome P450 3A4 (Homo sapiens, UniProt P08684);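 note: CYP3A4 tested as one member of a cytochrome P450 panel screen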
[2] = molecular target: Cytochrome P450 2D6 (Homo sapiens, UniProt P10635);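 note: CYP2D6 member of a cytochrome P450 panel assay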
[3] = molecular target: T1, E3 ubiquitin-protein ligase XIAP (Homo sapiens, UniProt P98170); assay: Counter Screen using XIAP-Bir3 for Chemical Antagonists of Bir1/2 domains of IAP-family anti-apoptotic proteins. [Related pubchem assays (depositor defined):AID1018, AID1449, AID1514, AID1638, AID1749, AID1750, AID488957, AID488963]
[4] = molecular target: T1, E3 ubiquitin-protein ligase XIAP; assay: small molecules displacing peptide from XIAP – biochemical, IAP family, fluorescence polarization (AID 1018); type: functional
[5] = Luminescence-based cell-based high throughput dose response assay to identify activators of the DAF-12 from the parasite S. stercoralis (ssDAF-12).; type: functional
[6] = Trypanosoma cruzi growth suppression in host cells – NIH3T3 host cells, beta-gal luminescence, confirmation (AID 2044); type: functional, cell-based;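 note: intracellular parasites grown in NIH/3T3 mouse fibroblasts as host cells; luminescent beta-galactosidase reporter signal from transgenic T. cruzi replicating inside host cells; inhibitors lower the luminescence signal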
[7] = NIH3T3 cell viability loss – ATP luminescence, mouse fibroblasts, counter-screen, dose response (AID 2010); type: functional, cell-based;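 note: cells exposed to compound for about 90 hours before reading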
[8] = molecular target: T2, Bcl-2-related protein A1 (Mus musculus, UniProt Q07440); type: functional;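 note: confirmatory dose–response counterscreen on Bfl-1, used to check hits from a UBC13 polyubiquitin inhibitor campaign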
T2 sequence (Q07440 whole entry): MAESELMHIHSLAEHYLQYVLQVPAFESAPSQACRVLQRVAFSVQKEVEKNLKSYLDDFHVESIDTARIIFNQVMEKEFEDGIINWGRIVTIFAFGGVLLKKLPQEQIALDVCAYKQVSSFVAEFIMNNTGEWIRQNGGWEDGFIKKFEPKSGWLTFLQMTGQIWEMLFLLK

[9] = molecular target: T3, Ubiquitin-conjugating enzyme E2 N (Homo sapiens, UniProt P61088); type: functional
T3 sequence (P61088 whole entry): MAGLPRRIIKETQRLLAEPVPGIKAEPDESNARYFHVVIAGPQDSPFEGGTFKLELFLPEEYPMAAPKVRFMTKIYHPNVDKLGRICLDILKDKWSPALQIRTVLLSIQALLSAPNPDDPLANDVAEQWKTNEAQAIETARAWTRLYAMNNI

[10] = molecular target: T3, Ubiquitin-conjugating enzyme E2 N; type: functional; remark: listed apart in the source
[11] = activation of miR-122 Renilla sensor silencing – cell-based, Huh7 psiCHECK-miR122, Renilla luciferase, cherry-picked, dose response (AID 651956); type: functional;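 note: huh7 hepatoma cells stably carrying a psiCHECK-2 miR-122 sensor plasmid; renilla luciferase signal reporting endogenous miR-122 activity after 48 h compound exposure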
[12] = general mammalian cell viability loss – activator set, cherry-pick, cytotoxicity control for miR-122 modulator project, dose response (AID 720690); type: functional, cell-based;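 note: HEK293T human cells scored for general mammalian cytotoxicity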
[13] = molecular target: CAAX prenyl protease 1 (Saccharomyces cerevisiae S288c, UniProt P47154); assay: yeast CAAX protease Ste24 inhibition – biochemical, S. cerevisiae, plate reader, cherry-pick, dose response (AID 488815)
[14] = molecular target: Cytochrome P450 2C9 (Homo sapiens, UniProt P11712)
[15] = molecular target: Glyceraldehyde-3-phosphate dehydrogenase (Homo sapiens, UniProt P04406)
[16] = molecular target: T4, Alkaline phosphatase, tissue-nonspecific isozyme (Homo sapiens, UniProt P05186); assay: potency against alkaline phosphatase TNAP – biochemical, luminescent, dose response, SAR follow-up (AID 1056)
T4 sequence (P05186 whole entry): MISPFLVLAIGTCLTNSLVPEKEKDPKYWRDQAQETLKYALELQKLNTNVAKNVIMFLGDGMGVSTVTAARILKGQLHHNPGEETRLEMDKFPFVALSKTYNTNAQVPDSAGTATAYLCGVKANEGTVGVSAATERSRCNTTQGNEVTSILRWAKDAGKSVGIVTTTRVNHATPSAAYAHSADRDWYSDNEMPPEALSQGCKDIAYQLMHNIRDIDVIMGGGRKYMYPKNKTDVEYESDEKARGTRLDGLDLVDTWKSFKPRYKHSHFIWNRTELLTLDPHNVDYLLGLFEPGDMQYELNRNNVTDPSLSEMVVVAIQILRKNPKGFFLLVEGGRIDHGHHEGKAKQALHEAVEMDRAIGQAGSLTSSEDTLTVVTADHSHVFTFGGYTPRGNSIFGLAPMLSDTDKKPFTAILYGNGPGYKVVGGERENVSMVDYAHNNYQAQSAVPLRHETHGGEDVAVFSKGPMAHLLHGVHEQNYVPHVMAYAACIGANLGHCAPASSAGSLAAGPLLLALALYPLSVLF

[17] = molecular target: Peroxisome proliferator-activated receptor gamma/Nuclear receptor coactivator 1 (Homo sapiens, UniProt P37231); assay: (§1) TR-FRET dose response biochemical High Throughput Screening assay for agonists of the steroid receptor coactivator 1 (SRC-1) recruitment by the peroxisome proliferator-activated receptor gamma (PPAR gamma): non-selective agonists. [Related pubchem assays (depositor defined):AID1300, AID1808, AID504735, AID631]; type: protein assay
[18] = molecular target: Peroxisome proliferator-activated receptor gamma/Nuclear receptor coactivator 3 (Homo sapiens, UniProt P37231); assay: as §1, with “3 (SRC-3)” for “1 (SRC-1)”, “assays: 1301 (Confirmation screen.), 1048 (Primary screen.)]” for “assays (depositor defined):AID1300, AID1808, AID504735, AID631]”; type: functional
[19] = molecular target: Peroxisome proliferator-activated receptor gamma/Nuclear receptor coactivator 2 (Homo sapiens, UniProt P37231); assay: TR-FRET dose response biochemical High Throughput Screening assay for agonists of the steroid receptor coactivator 2 (SRC-2) recruitment by the peroxisome proliferator-activated receptor gamma (PPAR gamma): non-selective agonists. [Related pubchem assays: 1297, 1032 ]; type: functional

T1 sequence (P98170 whole entry): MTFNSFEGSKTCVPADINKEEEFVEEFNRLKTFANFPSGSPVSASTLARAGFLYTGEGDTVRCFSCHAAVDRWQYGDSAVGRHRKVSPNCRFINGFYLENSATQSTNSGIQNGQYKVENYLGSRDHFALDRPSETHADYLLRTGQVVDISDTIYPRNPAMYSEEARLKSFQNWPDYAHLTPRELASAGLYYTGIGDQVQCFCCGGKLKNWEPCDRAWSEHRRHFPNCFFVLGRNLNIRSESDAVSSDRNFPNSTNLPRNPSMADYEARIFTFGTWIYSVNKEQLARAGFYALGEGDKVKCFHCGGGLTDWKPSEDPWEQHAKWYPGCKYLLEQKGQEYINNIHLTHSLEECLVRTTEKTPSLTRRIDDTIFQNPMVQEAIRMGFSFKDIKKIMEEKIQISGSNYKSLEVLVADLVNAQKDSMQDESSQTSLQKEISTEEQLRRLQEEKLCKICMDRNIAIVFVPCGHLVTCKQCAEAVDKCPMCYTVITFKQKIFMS
Chain of Cytochrome P450 2C9 (P11712 whole entry): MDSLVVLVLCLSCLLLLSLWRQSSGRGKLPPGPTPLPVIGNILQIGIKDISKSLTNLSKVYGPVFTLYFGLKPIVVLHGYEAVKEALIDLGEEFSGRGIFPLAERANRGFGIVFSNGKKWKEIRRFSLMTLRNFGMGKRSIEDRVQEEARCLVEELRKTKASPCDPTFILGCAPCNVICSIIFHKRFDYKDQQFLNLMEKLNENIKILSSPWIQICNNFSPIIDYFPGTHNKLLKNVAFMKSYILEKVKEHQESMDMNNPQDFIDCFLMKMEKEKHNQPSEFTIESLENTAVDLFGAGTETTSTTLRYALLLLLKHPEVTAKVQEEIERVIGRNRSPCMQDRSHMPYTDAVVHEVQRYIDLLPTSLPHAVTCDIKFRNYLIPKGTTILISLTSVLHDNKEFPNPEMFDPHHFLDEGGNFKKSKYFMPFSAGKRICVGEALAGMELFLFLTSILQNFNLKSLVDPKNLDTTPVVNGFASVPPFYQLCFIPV
Chain of Glyceraldehyde-3-phosphate dehydrogenase (P04406 whole entry): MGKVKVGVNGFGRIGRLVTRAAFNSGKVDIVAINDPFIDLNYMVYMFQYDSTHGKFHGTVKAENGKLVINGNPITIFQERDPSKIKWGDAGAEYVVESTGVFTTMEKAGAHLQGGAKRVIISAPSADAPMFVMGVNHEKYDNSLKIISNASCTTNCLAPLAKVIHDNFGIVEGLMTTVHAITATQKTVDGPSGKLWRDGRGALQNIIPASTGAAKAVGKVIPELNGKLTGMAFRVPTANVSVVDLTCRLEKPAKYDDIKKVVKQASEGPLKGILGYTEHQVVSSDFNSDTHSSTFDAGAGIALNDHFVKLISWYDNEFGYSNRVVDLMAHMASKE
Chain of CAAX prenyl protease 1 (P47154 whole entry): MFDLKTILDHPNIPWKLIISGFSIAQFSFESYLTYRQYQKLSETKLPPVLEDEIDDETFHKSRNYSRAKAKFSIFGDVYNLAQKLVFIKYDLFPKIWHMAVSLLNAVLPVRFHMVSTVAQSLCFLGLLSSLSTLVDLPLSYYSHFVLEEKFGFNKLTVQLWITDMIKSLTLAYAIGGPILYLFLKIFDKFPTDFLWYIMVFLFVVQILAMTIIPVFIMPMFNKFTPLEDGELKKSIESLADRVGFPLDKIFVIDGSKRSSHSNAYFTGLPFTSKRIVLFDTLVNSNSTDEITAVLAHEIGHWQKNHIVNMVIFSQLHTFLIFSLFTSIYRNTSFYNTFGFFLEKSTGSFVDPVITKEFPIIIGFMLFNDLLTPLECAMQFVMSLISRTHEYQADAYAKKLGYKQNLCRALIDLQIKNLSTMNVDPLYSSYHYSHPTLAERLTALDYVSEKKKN
Chain of Cytochrome P450 2D6 (P10635 whole entry): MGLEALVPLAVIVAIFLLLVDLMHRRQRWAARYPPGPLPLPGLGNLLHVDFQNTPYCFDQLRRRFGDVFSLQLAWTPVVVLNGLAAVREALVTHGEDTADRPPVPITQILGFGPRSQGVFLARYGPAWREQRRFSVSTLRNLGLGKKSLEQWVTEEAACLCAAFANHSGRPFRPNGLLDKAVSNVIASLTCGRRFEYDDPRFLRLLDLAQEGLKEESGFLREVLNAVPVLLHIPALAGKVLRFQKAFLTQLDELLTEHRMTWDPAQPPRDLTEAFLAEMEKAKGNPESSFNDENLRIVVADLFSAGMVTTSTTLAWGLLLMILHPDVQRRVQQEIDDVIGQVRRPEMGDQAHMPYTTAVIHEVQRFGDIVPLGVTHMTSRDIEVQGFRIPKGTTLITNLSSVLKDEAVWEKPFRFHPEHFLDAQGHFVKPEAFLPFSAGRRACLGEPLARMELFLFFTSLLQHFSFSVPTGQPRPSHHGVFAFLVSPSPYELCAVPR
Chain of Cytochrome P450 3A4 (P08684 whole entry): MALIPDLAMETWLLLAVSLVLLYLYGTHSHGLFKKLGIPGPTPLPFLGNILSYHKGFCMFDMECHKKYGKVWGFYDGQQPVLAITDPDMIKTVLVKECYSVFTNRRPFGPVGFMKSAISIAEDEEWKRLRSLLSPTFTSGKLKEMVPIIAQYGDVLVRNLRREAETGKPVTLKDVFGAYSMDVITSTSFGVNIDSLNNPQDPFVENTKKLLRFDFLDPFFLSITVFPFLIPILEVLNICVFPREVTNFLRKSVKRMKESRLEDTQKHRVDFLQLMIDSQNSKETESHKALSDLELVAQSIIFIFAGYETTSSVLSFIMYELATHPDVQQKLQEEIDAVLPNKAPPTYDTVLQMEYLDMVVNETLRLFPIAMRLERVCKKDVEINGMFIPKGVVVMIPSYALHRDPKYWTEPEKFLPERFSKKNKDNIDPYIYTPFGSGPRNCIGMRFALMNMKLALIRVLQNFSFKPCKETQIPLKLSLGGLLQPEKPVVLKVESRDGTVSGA
Chain of Peroxisome proliferator-activated receptor gamma/Nuclear receptor coactivator 1 (P37231 whole entry): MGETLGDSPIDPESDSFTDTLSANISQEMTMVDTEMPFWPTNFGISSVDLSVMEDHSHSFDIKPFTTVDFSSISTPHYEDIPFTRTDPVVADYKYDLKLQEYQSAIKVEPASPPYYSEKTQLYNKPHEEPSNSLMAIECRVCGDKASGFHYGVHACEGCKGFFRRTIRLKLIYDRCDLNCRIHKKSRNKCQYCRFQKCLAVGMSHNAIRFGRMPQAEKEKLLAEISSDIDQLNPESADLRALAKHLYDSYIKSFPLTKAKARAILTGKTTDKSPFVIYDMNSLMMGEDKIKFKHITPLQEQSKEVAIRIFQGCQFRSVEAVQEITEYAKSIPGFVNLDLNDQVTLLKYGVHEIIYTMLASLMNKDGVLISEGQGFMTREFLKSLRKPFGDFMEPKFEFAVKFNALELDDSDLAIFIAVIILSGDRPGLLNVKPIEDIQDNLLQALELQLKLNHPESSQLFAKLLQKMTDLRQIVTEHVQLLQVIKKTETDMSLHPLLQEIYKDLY
Chain of Peroxisome proliferator-activated receptor gamma/Nuclear receptor coactivator 1 (Q15788 whole entry, further chain): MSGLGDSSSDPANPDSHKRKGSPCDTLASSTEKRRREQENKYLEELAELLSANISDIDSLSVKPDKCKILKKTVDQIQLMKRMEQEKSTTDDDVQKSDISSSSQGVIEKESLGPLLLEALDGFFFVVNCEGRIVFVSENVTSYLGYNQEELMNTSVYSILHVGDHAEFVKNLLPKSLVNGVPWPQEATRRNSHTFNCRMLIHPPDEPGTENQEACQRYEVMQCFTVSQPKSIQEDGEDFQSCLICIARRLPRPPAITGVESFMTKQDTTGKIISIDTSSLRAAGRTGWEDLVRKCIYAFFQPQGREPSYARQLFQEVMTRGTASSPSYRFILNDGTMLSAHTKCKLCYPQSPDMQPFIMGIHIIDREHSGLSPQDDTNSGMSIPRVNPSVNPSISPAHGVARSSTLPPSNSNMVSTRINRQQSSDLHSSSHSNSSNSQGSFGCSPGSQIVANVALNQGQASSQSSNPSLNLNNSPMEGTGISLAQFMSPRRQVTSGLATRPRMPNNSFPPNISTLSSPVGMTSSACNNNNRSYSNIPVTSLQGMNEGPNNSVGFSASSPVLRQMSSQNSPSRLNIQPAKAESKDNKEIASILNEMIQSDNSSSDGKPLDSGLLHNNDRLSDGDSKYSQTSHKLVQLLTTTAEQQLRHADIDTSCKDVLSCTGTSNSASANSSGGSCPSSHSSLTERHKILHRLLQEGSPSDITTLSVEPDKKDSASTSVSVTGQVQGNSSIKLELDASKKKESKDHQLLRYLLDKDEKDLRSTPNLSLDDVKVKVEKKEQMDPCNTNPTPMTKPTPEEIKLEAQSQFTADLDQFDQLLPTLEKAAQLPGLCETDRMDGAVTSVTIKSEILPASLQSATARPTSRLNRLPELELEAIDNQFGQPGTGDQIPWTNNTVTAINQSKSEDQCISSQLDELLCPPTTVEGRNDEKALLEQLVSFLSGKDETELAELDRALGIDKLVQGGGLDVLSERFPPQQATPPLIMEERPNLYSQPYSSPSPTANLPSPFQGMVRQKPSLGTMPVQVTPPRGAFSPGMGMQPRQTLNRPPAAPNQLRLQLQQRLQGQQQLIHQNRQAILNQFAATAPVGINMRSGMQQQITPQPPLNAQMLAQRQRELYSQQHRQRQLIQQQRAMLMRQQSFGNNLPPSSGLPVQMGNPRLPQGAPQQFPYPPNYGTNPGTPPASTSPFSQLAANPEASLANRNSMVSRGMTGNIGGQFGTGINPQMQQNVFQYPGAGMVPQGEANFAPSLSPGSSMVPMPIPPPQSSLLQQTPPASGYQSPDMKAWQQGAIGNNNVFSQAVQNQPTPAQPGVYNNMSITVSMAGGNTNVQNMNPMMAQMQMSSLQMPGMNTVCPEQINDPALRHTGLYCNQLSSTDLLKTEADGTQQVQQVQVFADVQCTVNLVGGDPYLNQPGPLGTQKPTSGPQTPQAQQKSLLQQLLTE

In the case of `Br/C(=N\N=c1/nn[nH][nH]1)c1ccncc1`, the AC50 [1] is reported as 5.01 µM (inconclusive) and the AC50 [2] is reported as “inconclusive”.
With `Cc1c(C(=O)N2CCc3ccccc32)oc2ccccc12` the IC50 [3] was > 100 µM (inactive), the IC50 [4] was > 100 µM (not active) and the IC50 [5] was > 67.6 µM (inactive).
In the case of `CCN(CC)CCNC(=O)c1ccc(NC(=O)c2cn(-c3ccc(F)cc3)nc2-c2cccc(OC)c2)cc1`, the EC50 [6] is reported as 3.25 µM (active), the EC50 [7] is reported as > 60 µM (not active) and the IC50 [8] is reported as > 20 µM (inactive). The IC50 [9] was 14.6 µM (active), the IC50 [10] was 8.8 µM (active) and the AC50 [11] was 11.1 µM (active). For the same molecule, the AC50 [12] was 15.8 µM (active).
For `Cc1cc(C)cc(N2CC(=O)C(c3nc(O)c4ccccc4n3)=C2N)c1`, the AC50 [13] was 14.7 µM (active).
With `COc1ccccc1C(=O)Nc1cc2c(ccc3ccccc32)oc1=O` the AC50 [14] was “inconclusive”.
In the case of `O=C1C2CCCCC2C(=O)N1c1ncn[nH]1` (centres undefined), the IC50 [15] is reported as > 100 µM (not active) and the IC50 [16] is reported as > 100 µM (inactive).
In the case of `O=c1c2ccccc2c(-c2nnc(S)o2)nn1Cc1ccccc1`, the EC50 [17] is reported as 10.3 µM (inactive), the EC50 [18] is reported as 63.6 µM (not active) and the EC50 [19] is reported as 11.6 µM (not active).
